pIC50: −log10 of the molar value.
Tests used:
[1] = biological target: RAF proto-oncogene serine/threonine-protein kinase (Homo sapiens, UniProt P04049); assay: Inhibition of c-Raf 1 (unknown origin)
[2] = biological target: T1, Serine/threonine-protein kinase A-Raf (Homo sapiens, UniProt P10398); assay: Inhibition of A-Raf (unknown origin)
T1 sequence (P10398 whole entry): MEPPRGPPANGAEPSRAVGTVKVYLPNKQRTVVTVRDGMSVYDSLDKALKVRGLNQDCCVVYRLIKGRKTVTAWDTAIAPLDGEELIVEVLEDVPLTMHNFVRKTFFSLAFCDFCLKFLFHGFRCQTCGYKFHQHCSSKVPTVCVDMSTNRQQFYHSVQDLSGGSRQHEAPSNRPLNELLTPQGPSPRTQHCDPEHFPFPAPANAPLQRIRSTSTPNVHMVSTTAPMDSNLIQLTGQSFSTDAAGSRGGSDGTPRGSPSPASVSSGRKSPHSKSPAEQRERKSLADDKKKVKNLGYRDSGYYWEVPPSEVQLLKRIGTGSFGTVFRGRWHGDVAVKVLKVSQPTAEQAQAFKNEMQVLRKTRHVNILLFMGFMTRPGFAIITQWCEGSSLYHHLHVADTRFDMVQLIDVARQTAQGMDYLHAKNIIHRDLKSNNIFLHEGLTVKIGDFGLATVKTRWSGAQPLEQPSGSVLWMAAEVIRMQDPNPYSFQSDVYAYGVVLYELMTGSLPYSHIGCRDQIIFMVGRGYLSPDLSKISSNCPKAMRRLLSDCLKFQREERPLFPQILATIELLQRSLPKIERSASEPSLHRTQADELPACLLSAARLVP

[3] = biological target: Serine/threonine-protein kinase B-raf (Homo sapiens, UniProt P15056); assay: Inhibition of B-Raf (unknown origin)
[4] = biological target: Serine/threonine-protein kinase B-raf (Homo sapiens, UniProt P15056, V600E); assay: Inhibition of B-Raf V600E mutant (unknown origin)
[5] = biological target: Macrophage colony-stimulating factor 1 receptor (Homo sapiens, UniProt P07333); assay: Inhibition of Fms (unknown origin)
[6] = biological target: High affinity nerve growth factor receptor (Homo sapiens, UniProt P04629); assay: Inhibition of TrkA (unknown origin)
[7] = biological target: Mast/stem cell growth factor receptor Kit (Homo sapiens, UniProt P10721); assay: Inhibition of Kit (unknown origin)
[8] = biological target: Vascular endothelial growth factor receptor 2 (Homo sapiens, UniProt P35968); assay: Inhibition of Kdr (unknown origin)
[9] = biological target: Tyrosine-protein kinase BTK (Homo sapiens, UniProt Q06187); assay: Inhibition of Btk (unknown origin)
[10] = biological target: Proto-oncogene tyrosine-protein kinase Src (Homo sapiens, UniProt P12931); assay: Inhibition of Src (unknown origin)
[11] = biological target: Tyrosine-protein kinase CSK (Homo sapiens, UniProt P41240); assay: Inhibition of Csk (unknown origin)
Focal adhesion kinase 1 = Focal adhesion kinase 1 (Homo sapiens, UniProt Q05397); assay: Inhibition of Fak (unknown origin)
[12] = biological target: Protein-tyrosine kinase 6 (Homo sapiens, UniProt Q13882); assay: Inhibition of Brk (unknown origin)
[13] = biological target: Tyrosine-protein kinase Lyn (Homo sapiens, UniProt P07948); assay: Inhibition of Lyn (unknown origin)
[14] = biological target: Tyrosine-protein kinase Lck (Homo sapiens, UniProt P06239); assay: Inhibition of Lck (unknown origin)
[15] = biological target: Tyrosine-protein kinase Yes (Homo sapiens, UniProt P07947); assay: Inhibition of Yes (unknown origin)

Measured: pIC50

RAF proto-oncogene serine/threonine-protein kinase, sequence (P04049 whole entry): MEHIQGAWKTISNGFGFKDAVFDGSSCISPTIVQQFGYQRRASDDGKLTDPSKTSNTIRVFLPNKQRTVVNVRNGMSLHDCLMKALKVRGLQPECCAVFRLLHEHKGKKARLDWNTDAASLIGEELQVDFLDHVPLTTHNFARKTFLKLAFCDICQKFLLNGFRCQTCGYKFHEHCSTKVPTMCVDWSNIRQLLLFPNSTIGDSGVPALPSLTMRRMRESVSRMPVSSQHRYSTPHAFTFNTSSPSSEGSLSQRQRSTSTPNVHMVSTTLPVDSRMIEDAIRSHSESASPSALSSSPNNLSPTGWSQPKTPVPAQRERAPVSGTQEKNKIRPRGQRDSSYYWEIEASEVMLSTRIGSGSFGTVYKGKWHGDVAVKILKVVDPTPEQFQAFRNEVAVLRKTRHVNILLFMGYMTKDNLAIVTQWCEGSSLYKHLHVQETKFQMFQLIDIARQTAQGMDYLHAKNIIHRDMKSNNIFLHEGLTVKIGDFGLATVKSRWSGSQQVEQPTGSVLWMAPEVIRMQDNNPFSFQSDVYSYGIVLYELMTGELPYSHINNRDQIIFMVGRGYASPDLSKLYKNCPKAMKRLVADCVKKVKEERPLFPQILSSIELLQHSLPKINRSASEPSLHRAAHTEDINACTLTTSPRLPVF
Serine/threonine-protein kinase B-raf (Homo sapiens, UniProt P15056, V600E), sequence (P15056 2-766 V600E limits assumed): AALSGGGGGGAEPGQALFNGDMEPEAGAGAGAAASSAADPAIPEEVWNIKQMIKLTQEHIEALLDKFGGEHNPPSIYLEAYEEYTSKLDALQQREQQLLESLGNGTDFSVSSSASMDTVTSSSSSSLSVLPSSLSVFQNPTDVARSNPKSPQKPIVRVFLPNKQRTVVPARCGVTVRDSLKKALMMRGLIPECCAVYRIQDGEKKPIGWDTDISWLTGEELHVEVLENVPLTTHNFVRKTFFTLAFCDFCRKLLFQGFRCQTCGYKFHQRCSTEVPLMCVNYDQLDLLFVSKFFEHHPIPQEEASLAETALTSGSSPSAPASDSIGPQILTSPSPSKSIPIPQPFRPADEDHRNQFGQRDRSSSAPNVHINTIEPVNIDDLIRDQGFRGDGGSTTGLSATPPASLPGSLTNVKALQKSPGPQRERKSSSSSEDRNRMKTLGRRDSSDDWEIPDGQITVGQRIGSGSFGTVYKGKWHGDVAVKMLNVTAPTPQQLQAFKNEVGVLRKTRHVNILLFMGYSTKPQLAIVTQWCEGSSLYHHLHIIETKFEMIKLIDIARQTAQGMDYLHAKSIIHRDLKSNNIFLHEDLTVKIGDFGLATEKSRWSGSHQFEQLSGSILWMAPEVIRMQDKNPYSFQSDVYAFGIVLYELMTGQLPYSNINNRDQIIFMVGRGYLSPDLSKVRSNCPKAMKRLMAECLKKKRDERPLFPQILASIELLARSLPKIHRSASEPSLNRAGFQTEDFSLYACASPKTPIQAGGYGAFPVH
Serine/threonine-protein kinase B-raf (Homo sapiens, UniProt P15056), sequence (P15056 whole entry): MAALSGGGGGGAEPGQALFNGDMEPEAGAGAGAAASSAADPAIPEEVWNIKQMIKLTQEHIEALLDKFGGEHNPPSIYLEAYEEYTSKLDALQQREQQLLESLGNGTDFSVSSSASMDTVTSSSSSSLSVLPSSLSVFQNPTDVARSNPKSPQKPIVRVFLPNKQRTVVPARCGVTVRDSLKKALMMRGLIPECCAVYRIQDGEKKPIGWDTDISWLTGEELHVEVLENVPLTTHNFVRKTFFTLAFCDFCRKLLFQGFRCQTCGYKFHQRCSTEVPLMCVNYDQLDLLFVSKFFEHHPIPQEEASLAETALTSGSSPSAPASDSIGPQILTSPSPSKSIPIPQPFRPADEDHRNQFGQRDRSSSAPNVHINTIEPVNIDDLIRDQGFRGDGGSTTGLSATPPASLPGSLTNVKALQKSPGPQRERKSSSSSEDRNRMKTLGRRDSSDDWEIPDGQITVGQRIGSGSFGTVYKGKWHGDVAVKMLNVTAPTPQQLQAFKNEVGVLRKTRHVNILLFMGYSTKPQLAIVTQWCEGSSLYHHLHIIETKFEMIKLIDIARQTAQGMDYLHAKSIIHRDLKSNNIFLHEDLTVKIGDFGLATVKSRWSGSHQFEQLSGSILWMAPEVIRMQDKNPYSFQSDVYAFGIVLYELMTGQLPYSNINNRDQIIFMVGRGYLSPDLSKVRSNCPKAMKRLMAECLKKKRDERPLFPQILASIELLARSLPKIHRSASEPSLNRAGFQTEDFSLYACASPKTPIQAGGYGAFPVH
High affinity nerve growth factor receptor, sequence (P04629 whole entry): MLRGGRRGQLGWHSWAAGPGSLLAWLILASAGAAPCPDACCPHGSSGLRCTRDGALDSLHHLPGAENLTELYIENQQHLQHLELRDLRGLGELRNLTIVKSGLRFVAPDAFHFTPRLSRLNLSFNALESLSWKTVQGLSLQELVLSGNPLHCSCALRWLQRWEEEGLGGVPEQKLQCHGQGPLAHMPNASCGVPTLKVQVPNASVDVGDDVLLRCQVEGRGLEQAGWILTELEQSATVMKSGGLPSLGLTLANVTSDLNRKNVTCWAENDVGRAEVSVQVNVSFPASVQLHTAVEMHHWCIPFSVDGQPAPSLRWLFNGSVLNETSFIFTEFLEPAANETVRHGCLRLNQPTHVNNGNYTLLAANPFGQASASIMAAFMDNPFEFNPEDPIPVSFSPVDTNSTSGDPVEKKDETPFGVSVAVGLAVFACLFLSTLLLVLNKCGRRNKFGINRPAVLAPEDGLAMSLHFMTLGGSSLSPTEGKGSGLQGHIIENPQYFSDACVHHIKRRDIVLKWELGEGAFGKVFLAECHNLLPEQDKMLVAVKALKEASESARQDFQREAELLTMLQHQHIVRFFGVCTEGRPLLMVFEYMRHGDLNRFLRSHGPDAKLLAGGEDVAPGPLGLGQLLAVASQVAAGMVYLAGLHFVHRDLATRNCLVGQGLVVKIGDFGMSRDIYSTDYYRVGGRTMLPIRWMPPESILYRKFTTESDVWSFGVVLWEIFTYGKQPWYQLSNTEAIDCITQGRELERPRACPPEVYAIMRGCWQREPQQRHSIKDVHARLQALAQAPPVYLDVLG
Macrophage colony-stimulating factor 1 receptor, sequence (P07333 whole entry): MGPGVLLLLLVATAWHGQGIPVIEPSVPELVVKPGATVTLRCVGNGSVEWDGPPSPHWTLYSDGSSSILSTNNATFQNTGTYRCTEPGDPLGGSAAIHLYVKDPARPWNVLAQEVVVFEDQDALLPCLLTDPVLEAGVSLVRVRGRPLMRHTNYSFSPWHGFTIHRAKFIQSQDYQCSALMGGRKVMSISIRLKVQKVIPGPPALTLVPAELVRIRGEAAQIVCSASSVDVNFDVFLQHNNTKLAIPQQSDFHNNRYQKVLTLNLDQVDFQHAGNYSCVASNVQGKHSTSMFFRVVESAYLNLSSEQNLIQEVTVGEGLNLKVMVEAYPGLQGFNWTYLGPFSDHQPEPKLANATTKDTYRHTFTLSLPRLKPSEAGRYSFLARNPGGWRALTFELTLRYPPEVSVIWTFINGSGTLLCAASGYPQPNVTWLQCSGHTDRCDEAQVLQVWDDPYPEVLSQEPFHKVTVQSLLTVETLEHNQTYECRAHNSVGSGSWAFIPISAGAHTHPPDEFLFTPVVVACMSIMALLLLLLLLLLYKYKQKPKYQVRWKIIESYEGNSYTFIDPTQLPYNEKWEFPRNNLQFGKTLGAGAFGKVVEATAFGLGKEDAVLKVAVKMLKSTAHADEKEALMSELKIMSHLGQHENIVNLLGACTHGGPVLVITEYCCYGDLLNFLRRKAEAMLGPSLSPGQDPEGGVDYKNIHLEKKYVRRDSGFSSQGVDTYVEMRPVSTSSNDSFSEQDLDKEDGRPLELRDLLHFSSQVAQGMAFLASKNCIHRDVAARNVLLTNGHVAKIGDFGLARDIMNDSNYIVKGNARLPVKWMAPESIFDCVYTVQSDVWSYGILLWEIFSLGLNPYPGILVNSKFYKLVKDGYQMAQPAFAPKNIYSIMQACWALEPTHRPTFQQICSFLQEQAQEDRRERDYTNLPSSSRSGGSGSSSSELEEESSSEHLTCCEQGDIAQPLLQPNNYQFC
Proto-oncogene tyrosine-protein kinase Src, sequence (P12931 2-536 limits assumed): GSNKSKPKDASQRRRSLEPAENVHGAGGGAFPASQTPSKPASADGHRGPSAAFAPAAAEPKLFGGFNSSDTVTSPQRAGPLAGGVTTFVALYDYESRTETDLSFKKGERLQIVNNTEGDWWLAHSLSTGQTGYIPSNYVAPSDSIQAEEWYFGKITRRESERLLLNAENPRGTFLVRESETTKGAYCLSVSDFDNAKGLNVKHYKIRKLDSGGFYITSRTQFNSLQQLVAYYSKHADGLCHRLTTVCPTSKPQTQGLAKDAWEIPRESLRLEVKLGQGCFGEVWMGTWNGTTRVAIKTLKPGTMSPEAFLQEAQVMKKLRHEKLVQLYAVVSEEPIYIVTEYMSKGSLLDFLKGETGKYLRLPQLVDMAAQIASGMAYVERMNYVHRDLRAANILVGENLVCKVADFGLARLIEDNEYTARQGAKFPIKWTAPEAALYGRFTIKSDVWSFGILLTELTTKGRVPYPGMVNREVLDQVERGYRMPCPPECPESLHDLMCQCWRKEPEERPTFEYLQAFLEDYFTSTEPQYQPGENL
Protein-tyrosine kinase 6, sequence (Q13882 whole entry): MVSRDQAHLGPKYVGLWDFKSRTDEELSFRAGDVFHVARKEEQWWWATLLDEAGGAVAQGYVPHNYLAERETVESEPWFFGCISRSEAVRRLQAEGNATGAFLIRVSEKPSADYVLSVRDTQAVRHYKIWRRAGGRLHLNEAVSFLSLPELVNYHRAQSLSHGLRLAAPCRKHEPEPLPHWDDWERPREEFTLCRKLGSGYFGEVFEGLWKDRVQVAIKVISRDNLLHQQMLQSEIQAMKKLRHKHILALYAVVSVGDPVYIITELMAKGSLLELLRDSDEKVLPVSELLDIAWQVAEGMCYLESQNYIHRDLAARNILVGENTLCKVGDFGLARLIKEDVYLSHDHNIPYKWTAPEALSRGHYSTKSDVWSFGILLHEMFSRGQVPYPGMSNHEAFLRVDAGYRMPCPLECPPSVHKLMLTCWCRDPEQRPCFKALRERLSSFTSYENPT

CCCS(=O)(=O)Nc1ccc(F)c(C(=O)Nc2cnc3ccccc3c2)c1F
≥ 5.00: [1] | [2] | [3] | [4]

CCCS(=O)(=O)Nc1ccc(Cl)c(C(=O)Nc2nnc(Cc3ccc(Cl)cc3)s2)c1F
≥ 5.00: [2]

CCCS(=O)(=O)Nc1ccc(Cl)c(C(=O)Nc2cnc3ccccn23)c1F
≥ 5.00: [3] | [4]

CCCS(=O)(=O)Nc1ccc(Cl)c(C(=O)Nc2cnc3ccccc3c2)c1F
≥ 5.00: [1] | [2] | [3] | [4]

CCCS(=O)(=O)Nc1ccc(Cl)c(C(=O)Nc2ccc(NC3CC3)nc2)c1F
≥ 5.00: [1] | [2] | [3] | [4]

CCCS(=O)(=O)Nc1ccc(Cl)c(C(=O)Nc2ccc(NCc3cccs3)nc2)c1F
≥ 5.00: [1] | [2] | [3] | [4]

CCCS(=O)(=O)Nc1ccc(Cl)c(C(=O)Nc2ccc(NCc3ccccc3)nc2)c1F
≥ 5.00: [1] | [2] | [3] | [4]

CCCS(=O)(=O)Nc1ccc(Cl)c(C(=O)Nc2cc(-c3ccc(Cl)cc3)n[nH]2)c1F
≥ 5.00: [5] | [2]

CCCS(=O)(=O)Nc1ccc(Cl)c(C(=O)Nc2ccc(Nc3ncc(C)s3)nc2)c1F
≥ 5.00: [1] | [6] | [2] | [7] | [8] | [3] | [4] | [9] | [10]

CCCS(=O)(=O)Nc1ccc(F)c(COc2cnc3ccccc3c2)c1F
≥ 5.00: [5] | [2] | [4]

CCCS(=O)(=O)Nc1ccc(Cl)c(C(=O)Nc2ccc(NC3CCCC3)nc2)c1F
≥ 5.00: [1] | [2]

CCCS(=O)(=O)Nc1ccc(F)c(NCc2cnc3ccccc3c2)c1F
≥ 5.00: [2] | [4]

CCCS(=O)(=O)Nc1ccc(Cl)c(C(=O)Nc2ccc(NC(=O)N3CCCC3)nc2)c1F
≥ 5.00: [2]

CCCS(=O)(=O)Nc1ccc(Cl)c(C(=O)Nc2cnc(NC(C)=O)nc2)c1F
≥ 5.00: [1] | [2] | [3] | [4]

CCCS(=O)(=O)Nc1ccc(F)c(CNc2ccc(NC(C)=O)nc2)c1F
≥ 5.00: [1] | [2] | [4]

CCCS(=O)(=O)Nc1ccc(F)c(CNc2cnc3ccccc3c2)c1F
≥ 5.00: [1] | [2] | [4]

CCCS(=O)(=O)Nc1ccc(F)c(C(=O)Nc2ccc(NC(C)=O)nc2)c1F
≥ 5.00: [1] | [2] | [3] | [4]

CCCS(=O)(=O)Nc1ccc(Cl)c(C(=O)Nc2ccc(NC(C)=O)nc2)c1F
not listed: [5] | [7] | [8] | [9]
≥ 5.00: all other assays above

CCCS(=O)(=O)Nc1ccc(Cl)c(C(=O)Nc2ccc(NC(C)C)nc2)c1F
≥ 5.00: [2] | [4]

CCCS(=O)(=O)Nc1ccc(Cl)c(C(=O)Nc2cccnc2)c1F
≥ 5.00: [1] | [2] | [4]

From ChEMBL document CHEMBL3727344, “2-fluoro-benzenesulfonamide compounds as RAF kinase modulators” (2014)
